The values that follow come from PMC4457528, “Identification of Novel Small Molecule Inhibitors of Oncogenic RET Kinase” (PLoS ONE, 2015).

Common to all, as to test: KinomeScan kinase panel, single concentration 10 µM
Format in all cases: binding

Assay [1] has as its target T1, KinomeScan kinase panel (Homo sapiens, UniProt O60285).
T1 construct: purchased DiscoveRx (KinomeScan)
T1 sequence (O60285 1-661): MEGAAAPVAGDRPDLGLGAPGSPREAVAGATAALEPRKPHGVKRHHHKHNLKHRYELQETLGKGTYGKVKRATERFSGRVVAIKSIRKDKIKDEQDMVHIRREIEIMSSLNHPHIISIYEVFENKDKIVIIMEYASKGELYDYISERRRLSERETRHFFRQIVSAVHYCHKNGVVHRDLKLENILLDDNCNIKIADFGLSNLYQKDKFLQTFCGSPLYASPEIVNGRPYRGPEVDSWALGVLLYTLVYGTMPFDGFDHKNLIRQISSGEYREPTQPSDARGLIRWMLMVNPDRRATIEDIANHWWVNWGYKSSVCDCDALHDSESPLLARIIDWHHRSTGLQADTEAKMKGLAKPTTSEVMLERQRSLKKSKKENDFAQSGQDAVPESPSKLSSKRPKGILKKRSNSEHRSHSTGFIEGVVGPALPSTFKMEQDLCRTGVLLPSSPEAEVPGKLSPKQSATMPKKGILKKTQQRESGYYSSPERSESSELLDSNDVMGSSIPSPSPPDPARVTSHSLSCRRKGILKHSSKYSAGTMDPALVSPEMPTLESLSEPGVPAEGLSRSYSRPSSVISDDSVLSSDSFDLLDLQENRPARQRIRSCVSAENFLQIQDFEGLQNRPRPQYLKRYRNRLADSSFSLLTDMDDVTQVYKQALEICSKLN
As to conditions: ARK5, 10 µM.

In assay [2] the target is T2, KinomeScan kinase panel (Homo sapiens, UniProt O75676).
T2 construct: purchased DiscoveRx (KinomeScan)
T2 sequence (O75676 whole entry): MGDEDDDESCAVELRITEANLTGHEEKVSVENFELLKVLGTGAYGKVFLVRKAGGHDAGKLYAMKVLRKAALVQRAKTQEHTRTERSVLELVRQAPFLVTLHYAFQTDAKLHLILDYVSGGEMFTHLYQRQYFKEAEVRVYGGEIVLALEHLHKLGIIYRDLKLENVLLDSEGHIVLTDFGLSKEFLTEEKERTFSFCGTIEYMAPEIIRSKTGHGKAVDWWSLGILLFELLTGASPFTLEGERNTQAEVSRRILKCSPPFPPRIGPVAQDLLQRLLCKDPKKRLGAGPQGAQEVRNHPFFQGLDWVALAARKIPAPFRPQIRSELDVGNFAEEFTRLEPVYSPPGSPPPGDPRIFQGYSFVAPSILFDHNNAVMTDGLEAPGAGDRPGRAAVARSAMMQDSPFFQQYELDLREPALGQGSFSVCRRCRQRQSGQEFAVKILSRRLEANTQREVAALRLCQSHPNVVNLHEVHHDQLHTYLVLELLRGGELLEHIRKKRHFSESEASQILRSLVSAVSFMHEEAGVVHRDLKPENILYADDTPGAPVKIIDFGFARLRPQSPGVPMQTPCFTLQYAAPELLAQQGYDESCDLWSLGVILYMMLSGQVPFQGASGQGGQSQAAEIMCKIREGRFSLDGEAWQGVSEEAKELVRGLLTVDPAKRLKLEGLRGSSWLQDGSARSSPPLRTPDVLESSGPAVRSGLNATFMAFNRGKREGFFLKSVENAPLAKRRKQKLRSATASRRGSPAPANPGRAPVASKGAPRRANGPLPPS
As to conditions: 10 µM, read-out: score (%).

Assay [3] deals with T3, KinomeScan kinase panel (Homo sapiens, UniProt P12931).
T3 construct: purchased DiscoveRx (KinomeScan)
T3 sequence (P12931 whole entry): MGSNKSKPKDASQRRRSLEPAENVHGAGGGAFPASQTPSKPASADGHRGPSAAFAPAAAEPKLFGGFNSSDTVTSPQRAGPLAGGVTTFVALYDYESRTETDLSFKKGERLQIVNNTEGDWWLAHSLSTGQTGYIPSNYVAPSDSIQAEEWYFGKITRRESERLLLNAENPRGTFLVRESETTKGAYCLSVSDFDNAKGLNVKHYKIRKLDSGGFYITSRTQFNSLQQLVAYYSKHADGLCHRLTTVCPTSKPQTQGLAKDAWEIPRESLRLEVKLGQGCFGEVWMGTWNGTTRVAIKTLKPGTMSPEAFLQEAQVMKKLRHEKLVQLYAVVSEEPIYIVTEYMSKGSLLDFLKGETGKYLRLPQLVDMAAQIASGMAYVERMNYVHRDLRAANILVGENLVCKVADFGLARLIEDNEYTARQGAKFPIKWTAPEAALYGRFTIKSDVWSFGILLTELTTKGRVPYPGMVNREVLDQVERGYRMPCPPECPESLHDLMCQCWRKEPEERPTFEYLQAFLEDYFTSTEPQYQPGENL
As to conditions: 10 µM, read-out: score (%).

Assay [4] deals with T4, KinomeScan kinase panel (Homo sapiens, UniProt P24723).
T4 construct: purchased DiscoveRx (KinomeScan)
T4 sequence (P24723 whole entry): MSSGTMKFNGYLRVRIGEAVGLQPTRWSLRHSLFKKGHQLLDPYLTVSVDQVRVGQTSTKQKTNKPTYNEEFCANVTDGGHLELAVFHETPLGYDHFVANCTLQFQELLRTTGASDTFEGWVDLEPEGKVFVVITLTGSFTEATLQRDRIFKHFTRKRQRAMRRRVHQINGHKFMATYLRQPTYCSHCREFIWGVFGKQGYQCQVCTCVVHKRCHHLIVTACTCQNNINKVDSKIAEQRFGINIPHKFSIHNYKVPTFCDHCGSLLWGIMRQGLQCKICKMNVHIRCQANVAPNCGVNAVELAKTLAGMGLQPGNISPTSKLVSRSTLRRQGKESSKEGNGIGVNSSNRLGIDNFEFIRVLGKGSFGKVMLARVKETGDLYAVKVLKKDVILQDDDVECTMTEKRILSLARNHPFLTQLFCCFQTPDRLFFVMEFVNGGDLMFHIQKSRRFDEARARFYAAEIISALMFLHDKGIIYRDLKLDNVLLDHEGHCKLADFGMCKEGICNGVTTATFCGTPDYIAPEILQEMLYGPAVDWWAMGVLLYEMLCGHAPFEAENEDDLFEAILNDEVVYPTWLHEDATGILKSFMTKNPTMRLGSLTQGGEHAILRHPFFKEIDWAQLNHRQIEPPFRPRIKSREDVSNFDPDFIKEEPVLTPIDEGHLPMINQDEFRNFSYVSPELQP
As to conditions: 10 µM, read-out: score (%).

For assay [5], the target named is T5, KinomeScan kinase panel (Homo sapiens, UniProt P53355).
T5 construct: purchased DiscoveRx (KinomeScan)
T5 sequence (P53355 whole entry): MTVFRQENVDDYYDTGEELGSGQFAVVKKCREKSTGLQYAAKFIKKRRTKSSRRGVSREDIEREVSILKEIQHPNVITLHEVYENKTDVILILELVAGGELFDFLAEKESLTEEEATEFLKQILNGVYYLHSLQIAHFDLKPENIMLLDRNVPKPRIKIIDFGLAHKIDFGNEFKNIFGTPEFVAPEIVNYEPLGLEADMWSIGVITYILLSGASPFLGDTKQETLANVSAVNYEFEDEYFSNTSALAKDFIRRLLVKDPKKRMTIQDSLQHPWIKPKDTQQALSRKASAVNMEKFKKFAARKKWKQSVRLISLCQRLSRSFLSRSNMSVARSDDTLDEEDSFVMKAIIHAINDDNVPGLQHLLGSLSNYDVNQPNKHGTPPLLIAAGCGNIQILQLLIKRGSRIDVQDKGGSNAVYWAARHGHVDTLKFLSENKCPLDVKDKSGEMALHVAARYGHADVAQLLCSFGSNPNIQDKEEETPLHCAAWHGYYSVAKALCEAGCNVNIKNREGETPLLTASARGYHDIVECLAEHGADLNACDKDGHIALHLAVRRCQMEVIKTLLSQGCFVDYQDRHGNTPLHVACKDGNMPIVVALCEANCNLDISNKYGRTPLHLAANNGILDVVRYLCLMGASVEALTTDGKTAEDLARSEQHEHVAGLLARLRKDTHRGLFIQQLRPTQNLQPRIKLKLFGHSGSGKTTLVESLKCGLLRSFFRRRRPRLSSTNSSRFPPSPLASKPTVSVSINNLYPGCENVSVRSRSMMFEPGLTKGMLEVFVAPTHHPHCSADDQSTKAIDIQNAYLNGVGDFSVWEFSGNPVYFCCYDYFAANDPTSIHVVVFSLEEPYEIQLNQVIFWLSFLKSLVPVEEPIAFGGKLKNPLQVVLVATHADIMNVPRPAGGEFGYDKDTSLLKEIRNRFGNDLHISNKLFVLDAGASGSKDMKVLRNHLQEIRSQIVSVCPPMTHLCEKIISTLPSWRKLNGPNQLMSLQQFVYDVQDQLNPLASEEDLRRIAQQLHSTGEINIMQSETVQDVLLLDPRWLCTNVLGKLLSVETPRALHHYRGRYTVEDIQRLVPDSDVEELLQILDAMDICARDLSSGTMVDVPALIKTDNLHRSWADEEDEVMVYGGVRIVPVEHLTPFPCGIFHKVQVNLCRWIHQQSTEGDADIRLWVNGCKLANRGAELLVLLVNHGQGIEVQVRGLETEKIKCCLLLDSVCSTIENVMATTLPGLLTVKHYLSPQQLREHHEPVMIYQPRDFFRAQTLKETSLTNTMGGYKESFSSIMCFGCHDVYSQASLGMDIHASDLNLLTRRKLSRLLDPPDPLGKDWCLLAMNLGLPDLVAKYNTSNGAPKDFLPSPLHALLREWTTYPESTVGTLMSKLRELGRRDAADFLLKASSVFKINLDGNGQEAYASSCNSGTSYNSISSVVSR
As to conditions: DAPK1, 10 µM; read-out: score (%).

Assay [6] addresses T6, KinomeScan kinase panel (Homo sapiens, UniProt Q06418).
T6 construct: purchased DiscoveRx (KinomeScan)
T6 sequence (Q06418 41-890): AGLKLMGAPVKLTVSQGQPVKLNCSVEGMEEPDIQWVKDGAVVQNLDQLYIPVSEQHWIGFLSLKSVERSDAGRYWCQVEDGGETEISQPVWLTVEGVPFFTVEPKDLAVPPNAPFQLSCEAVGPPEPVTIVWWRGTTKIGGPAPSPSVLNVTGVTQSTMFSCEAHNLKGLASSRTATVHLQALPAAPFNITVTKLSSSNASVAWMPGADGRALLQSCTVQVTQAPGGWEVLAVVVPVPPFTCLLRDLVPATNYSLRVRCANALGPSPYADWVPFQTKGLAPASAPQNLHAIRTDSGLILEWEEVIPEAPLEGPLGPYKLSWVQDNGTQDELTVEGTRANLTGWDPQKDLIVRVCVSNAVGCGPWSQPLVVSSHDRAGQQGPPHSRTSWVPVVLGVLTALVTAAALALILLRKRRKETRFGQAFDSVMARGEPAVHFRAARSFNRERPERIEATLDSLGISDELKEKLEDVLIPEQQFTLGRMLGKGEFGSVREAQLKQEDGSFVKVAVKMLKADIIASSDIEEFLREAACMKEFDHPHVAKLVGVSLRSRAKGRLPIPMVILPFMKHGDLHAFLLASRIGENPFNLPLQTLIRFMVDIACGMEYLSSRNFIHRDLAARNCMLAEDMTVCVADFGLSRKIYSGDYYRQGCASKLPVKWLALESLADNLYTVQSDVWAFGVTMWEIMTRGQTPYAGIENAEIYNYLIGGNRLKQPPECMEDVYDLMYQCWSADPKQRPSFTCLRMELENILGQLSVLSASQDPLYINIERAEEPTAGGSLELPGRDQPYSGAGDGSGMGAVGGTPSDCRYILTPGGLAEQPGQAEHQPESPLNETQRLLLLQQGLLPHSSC
As to conditions: kinase TYRO3; 10 µM; read-out: score (%).

Assay [7] addresses T7, KinomeScan kinase panel (Homo sapiens, UniProt Q9NQU5).
T7 construct: purchased DiscoveRx (KinomeScan)
The conditions noted are these: PAK6, 10 µM; read-out: score (%).

Assay [8] has as its target T8, KinomeScan kinase panel (Homo sapiens, UniProt Q9NSY1).
T8 construct: purchased DiscoveRx (KinomeScan)
The conditions noted are these: BIKE, 10 µM; read-out: score (%).

Assay [9] deals with T9, KinomeScan kinase panel (Homo sapiens, UniProt Q9UM73).
T9 construct: purchased DiscoveRx (KinomeScan)
The conditions noted are these: ALK, 10 µM; read-out: score (%).

Setting [10] is: kinase RPS6KA4(Kin.Dom.1-N-terminal).
The mark [11] stands for this setting: kinase RPS6KA4(Kin.Dom.2-C-terminal).

SMILES strings stand for the structures. Read-outs that look alike come from different tables or passages of the source. Some results are limits rather than exact numbers.

T8 sequence (Q9NSY1 whole entry): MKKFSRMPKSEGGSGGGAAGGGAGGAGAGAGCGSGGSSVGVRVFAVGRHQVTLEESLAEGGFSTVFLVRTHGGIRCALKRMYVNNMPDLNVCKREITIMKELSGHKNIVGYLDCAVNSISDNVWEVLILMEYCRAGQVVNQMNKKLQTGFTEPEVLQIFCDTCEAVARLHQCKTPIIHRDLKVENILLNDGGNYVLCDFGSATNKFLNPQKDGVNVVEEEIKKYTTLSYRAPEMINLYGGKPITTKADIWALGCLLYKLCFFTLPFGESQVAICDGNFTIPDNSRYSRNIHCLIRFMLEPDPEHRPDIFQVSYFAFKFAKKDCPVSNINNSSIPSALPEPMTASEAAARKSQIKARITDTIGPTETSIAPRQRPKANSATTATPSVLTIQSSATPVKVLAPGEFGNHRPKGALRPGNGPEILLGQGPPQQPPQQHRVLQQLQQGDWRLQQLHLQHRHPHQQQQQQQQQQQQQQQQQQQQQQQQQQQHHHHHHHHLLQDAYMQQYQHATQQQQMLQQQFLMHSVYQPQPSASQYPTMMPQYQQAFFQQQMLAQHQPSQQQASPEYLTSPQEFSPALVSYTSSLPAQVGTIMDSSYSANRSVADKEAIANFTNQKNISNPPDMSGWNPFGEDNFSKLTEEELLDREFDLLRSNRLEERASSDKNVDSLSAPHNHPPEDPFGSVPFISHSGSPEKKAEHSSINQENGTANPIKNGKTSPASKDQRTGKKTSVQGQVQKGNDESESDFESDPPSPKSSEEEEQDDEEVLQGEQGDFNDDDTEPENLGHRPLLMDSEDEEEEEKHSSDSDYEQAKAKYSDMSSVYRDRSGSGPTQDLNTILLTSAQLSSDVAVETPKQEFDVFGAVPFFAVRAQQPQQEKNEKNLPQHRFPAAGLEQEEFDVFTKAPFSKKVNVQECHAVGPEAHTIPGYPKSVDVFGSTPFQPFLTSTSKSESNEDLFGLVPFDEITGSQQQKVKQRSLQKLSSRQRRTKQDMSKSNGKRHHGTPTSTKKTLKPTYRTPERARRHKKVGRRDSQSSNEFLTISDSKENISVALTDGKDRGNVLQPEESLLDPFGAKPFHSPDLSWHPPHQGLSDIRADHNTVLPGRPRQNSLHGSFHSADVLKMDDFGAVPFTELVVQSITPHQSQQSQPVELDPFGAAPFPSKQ

Take `CCN1CCN(Cc2ccc(NC(=O)c3ccc(C)c(NC(=O)c4cncc(-c5cccs5)c4)c3)cc2C(F)(F)F)CC1` [ALW-II-41-27]: the “score (%)” value at KinomeScan kinase panel [1] is given as “nb (Hits values higher than 30% were considered negative (no binding: nb))”. The remaining binding at 10 µM on KinomeScan kinase panel [2] (setting [10]) was 6.3%; at KinomeScan kinase panel [2] (setting [11]) it was above 30%; on KinomeScan kinase panel [3] (kinase SRC), 0.1%; at KinomeScan kinase panel [4] (PRKCH) it was 4.6%; on KinomeScan kinase panel [5], above 30%; at KinomeScan kinase panel [6], above 30%. In addition, the remaining binding at 10 µM on KinomeScan kinase panel [7], on KinomeScan kinase panel [8] and on KinomeScan kinase panel [9] was above 30% throughout.
On to `CCN1CCN(Cc2ccc(NC(=O)c3ccc(C)c(/C=C/c4cnc5[nH]ccc5c4Cl)c3)cc2C(F)(F)F)CC1` [HG-6-63-01, (E)-3-(2-(4-chloro-1H-pyrrolo[2,3-b]pyridin-5-yl)vinyl)-N-(4-((4-ethylpiperazin-1-yl)methyl)-3-(trifluoromethyl)phenyl)-4-methylbenzamide], for which, at KinomeScan kinase panel [1], the “score (%)” value was “nb (Hits values higher than 30% were considered negative (no binding: nb))”. Also, the remaining binding at 10 µM was above 30% at KinomeScan kinase panel [2] (RPS6KA4(Kin.Dom.1)); above 30% on KinomeScan kinase panel [2] (RPS6KA4(Kin.Dom.2)); 0.25% at KinomeScan kinase panel [3] (SRC); above 30% at KinomeScan kinase panel [4] (PRKCH); above 30% on KinomeScan kinase panel [5]; above 30% at KinomeScan kinase panel [6]. Further, the remaining binding at 10 µM at KinomeScan kinase panel [7] is above 30%; at KinomeScan kinase panel [8] it was 1.2%; on KinomeScan kinase panel [9], above 30%.
`CCN1CCN(Cc2ccc(NC(=O)c3ccc(C)c(C#Cc4cccnc4)c3)cc2C(F)(F)F)CC1` [XMD15-44]: the “score (%)” value on KinomeScan kinase panel [1] is “nb (Hits values higher than 30% were considered negative (no binding: nb))”. Moreover, the remaining binding at 10 µM at KinomeScan kinase panel [2] (setting [10]) is 30%; on KinomeScan kinase panel [2] (setting [11]), 99%; on KinomeScan kinase panel [3] (kinase SRC) it was 0%; on KinomeScan kinase panel [4] (kinase PRKCH), 67%; at KinomeScan kinase panel [5] it was above 30%; on KinomeScan kinase panel [6], 100%. In addition, the remaining binding at 10 µM on KinomeScan kinase panel [7] was 100%; on KinomeScan kinase panel [8], above 30%; at KinomeScan kinase panel [9], 23%.
